Experimental findings from patent US10537558B2 (Bantam Pharmaceutical, LLC, priority 2015, dated 2020) are described below.

SMILES strings stand for the structures. A value given as a limit tells only on which side of the number the result lay.

The subject of the assay is BJAB cells. Put plainly: BJAB cell proliferation (Cell Titer Glo). Format: cell-based. The note with it: Homo sapiens, read-out: EC50. The method, boiled down:
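BJAB cells exposed to serially diluted compounds (0.1% DMSO final) for about 72 h at 37 °C. Proliferation read by Cell Titer Glo luminescence as percent of untreated controls; EC50 from non-linear regression of dose-response data.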
Regarding `Cc1cc(-c2c(C)nn(-c3nc(-c4ccccc4Cl)c(SC(C)C)s3)c2C(=O)O)cc(C)n1` [Compound 157, 1-(4-(2-chlorophenyl)-5-(isopropylthio)thiazol-2-yl)-4-(2,6-dimethylpyridin-4-yl)-3-methyl-1H-pyrazole-5-carboxylic Acid], the EC50 fell in the range of 1 to 5 µM. Then `Cc1cc(-c2c(C)nn(-c3nc(-c4cccc(Cl)c4)c(SC(C)C)s3)c2C(=O)O)cc(C)n1` [Compound 158, 1-(4-(3-chlorophenyl)-5-(isopropylthio)thiazol-2-yl)-4-(2,6-dimethylpyridin-4-yl)-3-methyl-1H-pyrazole-5-carboxylic Acid], with 5 to 10 µM; and `Cc1cc(-c2c(C)nn(-c3nc(-c4ccc(Cl)cc4)c(SC(C)C)s3)c2C(=O)O)cc(C)n1` [Compound 159, 1-(4-(4-chlorophenyl)-5-(isopropylthio)thiazol-2-yl)-4-(2,6-dimethylpyridin-4-yl)-3-methyl-1H-pyrazole-5-carboxylic Acid], with less than 1 µM.

As for `Cc1cc(-c2c(C)nn(-c3nc(-c4ccc(Cl)cc4Cl)c(SC(C)C)s3)c2C(=O)O)cc(C)n1` [Compound 160, 1-(4-(2,4-dichlorophenyl)-5-(isopropylthio)thiazol-2-yl)-4-(2,6-dimethylpyridin-4-yl)-3-methyl-1H-pyrazole-5-carboxylic Acid], the EC50 is less than 1 µM.

As to `Cc1cc(-c2c(C)nn(-c3nc(-c4cc(Cl)ccc4Cl)c(SC(C)C)s3)c2C(=O)O)cc(C)n1` [Compound 161, 1-(4-(2,5-dichlorophenyl)-5-(isopropylthio)thiazol-2-yl)-4-(2,6-dimethylpyridin-4-yl)-3-methyl-1H-pyrazole-5-carboxylic acid], the EC50 fell in the range of 5 to 10 µM. Then `Cc1cc(-c2c(C)nn(-c3nc(C#Cc4ccccc4)c(SC(C)C)s3)c2C(=O)O)cc(C)n1` [Compound 162, 4-(2,6-dimethylpyridin-4-yl)-1-(5-(isopropylthio)-4-(phenylethynyl)thiazol-2-yl)-3-methyl-1H-pyrazole-5-carboxylic acid], with 5 to 10 µM; and `Cc1cc(-c2c(C)nn(-c3nc(Cc4ccccc4)c(SC(C)C)s3)c2C(=O)O)cc(C)n1` [Compound 163, 1-(4-benzyl-5-(isopropylthio)thiazol-2-yl)-4-(2,6-dimethylpyridin-4-yl)-3-methyl-1H-pyrazole-5-carboxylic acid], with 10 to 25 µM; and `COc1cc(F)cc(-c2c(C)nn(-c3nc(-c4ccc(Cl)c(Cl)c4)c(SC(C)C)s3)c2C(=O)O)c1` [Compound 164, 1-(4-(3,4-dichlorophenyl)-5-(isopropylthio)thiazol-2-yl)-4-(3-fluoro-5-methoxyphenyl)-3-methyl-1H-pyrazole-5-carboxylic Acid], with 1 to 5 µM.

As to `COc1cc(C)cc(-c2c(C)nn(-c3nc(-c4ccc(Cl)c(Cl)c4)c(SC(C)C)s3)c2C(=O)O)c1` [Compound 165, 1-(4-(3,4-dichlorophenyl)-5-(isopropylthio)thiazol-2-yl)-4-(3-methoxy-5-methylphenyl)-3-methyl-1H-pyrazole-5-carboxylic Acid], the concentration giving a half-maximal response (EC50) is 1 to 5 µM. Then `COc1cc(-c2c(C)nn(-c3nc(-c4ccc(Cl)c(Cl)c4)c(SC(C)C)s3)c2C(=O)O)ccn1` [Compound 166, 1-(4-(3,4-dichlorophenyl)-5-(isopropylthio)thiazol-2-yl)-4-(2-methoxypyridin-4-yl)-3-methyl-1H-pyrazole-5-carboxylic acid], with 5 to 10 µM. Under `Cc1cc(-c2c(C)nn(-c3nc(-c4ccc(Cl)c(Cl)c4)c(SC(C)C)s3)c2C(=O)O)ccn1` [Compound 167, 1-(4-(3,4-dichlorophenyl)-5-(isopropylthio)thiazol-2-yl)-3-methyl-4-(2-methylpyridin-4-yl)-1H-pyrazole-5-carboxylic Acid] stands 1 to 5 µM; under `Cc1nn(-c2nc(-c3cccc4[nH]ccc34)c(SC(C)C)s2)c(C(=O)O)c1-c1cccc(F)c1` [Compound 168, 1-(4-(1H-indol-4-yl)-5-(isopropylthio)thiazol-2-yl)-4-(3-fluorophenyl)-3-methyl-1H-pyrazole-5-carboxylic acid], greater than 25 µM; under `Cc1nn(-c2nc(-c3cccc(F)c3)c(SC(C)C)s2)c(C(=O)O)c1-c1cccc2[nH]ccc12` [Compound 169, 1-(4-(3-fluorophenyl)-5-(isopropylthio)thiazol-2-yl)-4-(1H-indol-4-yl)-3-methyl-1H-pyrazole-5-carboxylic acid], greater than 25 µM. For `Cc1nn(-c2nc(-c3ccc4[nH]ccc4c3)c(SC(C)C)s2)c(C(=O)O)c1-c1cccc(F)c1` [Compound 170, 1-(4-(1H-indol-5-yl)-5-(isopropylthio)thiazol-2-yl)-4-(3-fluorophenyl)-3-methyl-1H-pyrazole-5-carboxylic acid], the EC50 is greater than 25 µM. Under `Cc1nn(-c2nc(C#CC3CC3)c(SC(C)C)s2)c(C(=O)O)c1-c1cccc(F)c1` [Compound 171, 1-(4-(cyclopropylethynyl)-5-(isopropylthio)thiazol-2-yl)-4-(3-fluorophenyl)-3-methyl-1H-pyrazole-5-carboxylic acid] stands greater than 25 µM. Turning to `Cc1nn(-c2nc(C3CC3)c(SC(C)C)s2)c(C(=O)O)c1C1CC1` [Compound 172, 4-cyclopropyl-1-(4-cyclopropyl-5-(isopropylthio)thiazol-2-yl)-3-methyl-1H-pyrazole-5-carboxylic Acid], the EC50 is greater than 25 µM. Turning to `Cc1nn(-c2nc(-c3ccc(Cl)c(Cl)c3)c(SC(C)C)s2)c(C(=O)O)c1C1CC1` [Compound 173, 4-cyclopropyl-1-(4-(3,4-dichlorophenyl)-5-(isopropylthio)thiazol-2-yl)-3-methyl-1H-pyrazole-5-carboxylic Acid], the EC50 lay in the range of 10 to 25 µM. Under `Cc1nn(-c2nc(-c3ccc(Cl)c(Cl)c3)c(SC(C)C)s2)c(C(=O)O)c1-c1cc(Cl)cc(OC(C)C)c1` [Compound 174, 4-(3-chloro-5-isopropoxyphenyl)-1-(4-(3,4-dichlorophenyl)-5-(isopropylthio)thiazol-2-yl)-3-methyl-1H-pyrazole-5-carboxylic Acid] stands 1 to 5 µM. Under `Cc1nn(-c2nc(-c3cccc(Cl)c3)c(SC(C)C)s2)c(C(=O)O)c1-c1cccc(F)c1` [Compound 176, 1-(4-(3-chlorophenyl)-5-(isopropylthio)thiazol-2-yl)-4-(3-fluorophenyl)-3-methyl-1H-pyrazole-5-carboxylic Acid] stands 5 to 10 µM; under `Cc1nn(-c2nc(-c3ccc(Cl)cc3)c(SC(C)C)s2)c(C(=O)O)c1-c1cccc(F)c1` [Compound 177, 1-(4-(4-chlorophenyl)-5-(isopropylthio)thiazol-2-yl)-4-(3-fluorophenyl)-3-methyl-1H-pyrazole-5-carboxylic Acid], less than 1 µM. Then `Cc1nn(-c2nc(-c3ccc(Cl)cc3Cl)c(SC(C)C)s2)c(C(=O)O)c1-c1cccc(F)c1` [Compound 178, 1-(4-(2,4-dichlorophenyl)-5-(isopropylthio)thiazol-2-yl)-4-(3-fluorophenyl)-3-methyl-1H-pyrazole-5-carboxylic Acid], with 1 to 5 µM; and `Cc1nn(-c2nc(-c3ccc(-c4cccc(F)c4)nc3)c(SC(C)C)s2)c(C(=O)O)c1Br` [Compound 179, 4-bromo-1-(4-(6-(3-fluorophenyl)pyridin-3-yl)-5-(isopropylthio)thiazol-2-yl)-3-methyl-1H-pyrazole-5-carboxylic Acid], with 25 to 50 µM; and `Cc1cc(-c2c(C)nn(-c3nc(-c4ccc(Cl)c(Cl)c4)c(SC(C)C)s3)c2C(=O)O)cc(O[C@@H]2CCOC2)n1` [Compound 180, (R)-1-(4-(3,4-dichlorophenyl)-5-(isopropylthio)thiazol-2-yl)-3-methyl-4-(2-methyl-6-((tetrahydrofuran-3-yl)oxy)pyridin-4-yl)-1H-pyrazole-5-carboxylic Acid], with 10 to 25 µM. On to `COCCOc1cc(-c2c(C)nn(-c3nc(-c4ccc(Cl)c(Cl)c4)c(SC(C)C)s3)c2C(=O)O)cc(C)n1` [Compound 181, 1-(4-(3,4-dichlorophenyl)-5-(isopropylthio)thiazol-2-yl)-4-(2-(2-methoxyethoxy)-6-methylpyridin-4-yl)-3-methyl-1H-pyrazole-5-carboxylic Acid], for which the EC50 is 10 to 25 µM. Under `Cc1cc(-c2c(C)nn(-c3nc(-c4ccc(Cl)c(Cl)c4)c(SC(C)C)s3)c2C(=O)O)cc(O[C@H]2CCOC2)n1` [Compound 182, (S)-1-(4-(3,4-dichlorophenyl)-5-(isopropylthio)thiazol-2-yl)-3-methyl-4-(2-methyl-6-((tetrahydrofuran-3-yl)oxy)pyridin-4-yl)-1H-pyrazole-5-carboxylic acid] stands 10 to 25 µM.

As for `Cc1nn(-c2nc(C3=CCCCC3)c(SC(C)C)s2)c(C(=O)O)c1-c1cccc(F)c1` [Compound 183, 1-(4-(cyclohex-1-en-1-yl)-5-(isopropylthio)thiazol-2-yl)-4-(3-fluorophenyl)-3-methyl-1H-pyrazole-5-carboxylic Acid], the EC50 fell in the range of 5 to 10 µM.

For `Cc1nn(-c2nc(C3=CCCC3)c(SC(C)C)s2)c(C(=O)O)c1-c1cccc(F)c1` [Compound 184, 1-(4-(cyclopent-1-en-1-yl)-5-(isopropylthio)thiazol-2-yl)-4-(3-fluorophenyl)-3-methyl-1H-pyrazole-5-carboxylic acid], the EC50 was in the range of 10 to 25 µM. Under `COc1cc(Cl)cc(-c2c(C)nn(-c3nc(-c4ccccc4)c(SC(C)C)s3)c2C(=O)O)c1` [Compound 185, 4-(3-chloro-5-methoxyphenyl)-1-(5-(isopropylthio)-4-phenylthiazol-2-yl)-3-methyl-1H-pyrazole-5-carboxylic Acid] stands 10 to 25 µM. Take `Cc1nn(-c2nc(-c3ccc(F)cc3)c(SC(C)C)s2)c(C(=O)O)c1-c1cccc(F)c1` [Compound 186, 4-(3-fluorophenyl)-1-(4-(4-fluorophenyl)-5-(isopropylthio)thiazol-2-yl)-3-methyl-1H-pyrazole-5-carboxylic Acid]: the half-maximal effective concentration (EC50) lay within 1 to 5 µM. Then `COc1ccc(-c2nc(-n3nc(C)c(-c4cccc(F)c4)c3C(=O)O)sc2SC(C)C)cc1` [Compound 187, 4-(3-fluorophenyl)-1-(5-(isopropylthio)-4-(4-methoxyphenyl)thiazol-2-yl)-3-methyl-1H-pyrazole-5-carboxylic Acid], with 10 to 25 µM.
